Values quoted from earlier work in patent US20170020882A1, “ANTIVIRAL FORMULATION” (MEDA PHARMA SARL, priority 2008, published 2017).

Legend:
cold sore lesions = conditions: human, in vivo
[1] = human, in vivo

SMILES	reduction in healing time (cold sore lesions)	reduction of time to loss of pain (cold sore lesions)	frequency of aborted lesions [1]
Nc1nc2c(ncn2CCC(CO)CO)c(=O)[nH]1 [penciclovir]	0.7 days	0.6 days	
CC(=O)OCC(CCn1cnc2cnc(N)nc21)COC(C)=O [famciclovir]			8%
